The source of these data is paper PMC12668310, “High‐Throughput Synthesis and Screening of a Cyanimide Library Identifies Selective Inhibitors of ISG15‐Specific Protease mUSP18” (Angewandte Chemie (International Ed. in English), 2025).

Where “and” joins values, the source holds several entries; their conditions need not be identical. Equal values may be shown once.

Holding throughout (experiment): High-throughput screening, Ub-RhoMP, single dose 1.25 µM
Assay type in all cases: biochemical

The target of one assay is T1, OTUD1 (Homo sapiens, UniProt Q5VV17).
T1 sequence (Q5VV17 287-481): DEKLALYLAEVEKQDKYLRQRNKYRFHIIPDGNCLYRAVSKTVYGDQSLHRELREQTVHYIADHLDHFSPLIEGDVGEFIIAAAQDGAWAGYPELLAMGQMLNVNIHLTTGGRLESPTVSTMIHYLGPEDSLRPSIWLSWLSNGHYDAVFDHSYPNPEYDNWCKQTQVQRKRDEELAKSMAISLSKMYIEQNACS
The following applies: crude in-plate synthesized compound, 1.25 µM assuming full conversion. The procedure:
(§1) Since the in‐plate synthesis was conducted in 1536‐well Echo plates, the compounds could readily be transferred from these plates into 1536‐well assay plates using acoustic liquid dispensing (Figure 2a) and subjected to HTS. We screened the whole 7536 compound library against a panel of twelve enzymes, including three DUBs from the UCH family, two DUBs from the OTU family, five DUBs from the USP family, plus ISG15 protease USP18, and SUMO protease SENP1. Each compound was tested at a single dose of 1.25 µM, assuming full conversion (10 mM in DMSO of the formed products) during the in‐plate synthesis, using the fluorogenic assay described above. […] The compounds are sorted by the amine building blocks (BB1‐16), and within each BB, sorted by carboxylic acid (CA1‐471), thereby providing a comprehensive and systematic overview of the overall inhibition by each BB and CA combination. Some interesting patterns can be obtained from this map. […] Indeed, BB10 is the privileged scaffold for UCHL1 as it originates from UCHL1 inhibitor 5 (Figure 1). […] On the other hand, OTUD1 and USP32 show a much higher hit rate, and this is even more pronounced for USP30 and ISG15 protease mUSP18, each showing many active compounds distributed over several BB's.
(§2) Purified recombinant enzymes used in this study
(§3) High-throughput screening
(§4) The screens were performed at room temperature in “flat bottom, non-treated, black […]
(§5) µM. The compounds (10 nL each) were transferred from the 1 mM daughter plates to the […]
(§6) Four wells containing DMSO
(§7) (10 nL) and four wells containing NEM (10 mM final concentration) were used in each plate […]
(§8) solution (1.33x final concentration) was added to each well, followed by incubation for 30 min.
(§9) Next, 2 µL of a substrate solution (4x final concentration) was added to each well (Ub-RhoMP[2]
(§10) After 1h or 2h incubation the
(§11) The percentage inhibition was calculated for each well using the […]
(§12) Where FIx is the fluorescence intensity of each well, FIpos is the average fluorescence intensity of the positive (NEM) control wells, and FIneg is the average fluorescence intensity of the negative (DMSO) control wells.

A further assay has as its target USP16 (Homo sapiens, UniProt Q9Y5T5). Also on record: (22-823); His-tag (N); made in house. The conditions noted are these: for %inhibition USP16: crude in-plate synthesized compound, 1.25 µM assuming full conversion; for BB %inhibition USP16: individual amine building block (plate NCN-5). The procedure:
as §1, §2, §3, §4, §5, §6, §7, §8, §9, §10, §11, §12

The target of the next assay is T2, USP30 (Homo sapiens, UniProt Q70CQ3).
T2 sequence (Q70CQ3 57-517): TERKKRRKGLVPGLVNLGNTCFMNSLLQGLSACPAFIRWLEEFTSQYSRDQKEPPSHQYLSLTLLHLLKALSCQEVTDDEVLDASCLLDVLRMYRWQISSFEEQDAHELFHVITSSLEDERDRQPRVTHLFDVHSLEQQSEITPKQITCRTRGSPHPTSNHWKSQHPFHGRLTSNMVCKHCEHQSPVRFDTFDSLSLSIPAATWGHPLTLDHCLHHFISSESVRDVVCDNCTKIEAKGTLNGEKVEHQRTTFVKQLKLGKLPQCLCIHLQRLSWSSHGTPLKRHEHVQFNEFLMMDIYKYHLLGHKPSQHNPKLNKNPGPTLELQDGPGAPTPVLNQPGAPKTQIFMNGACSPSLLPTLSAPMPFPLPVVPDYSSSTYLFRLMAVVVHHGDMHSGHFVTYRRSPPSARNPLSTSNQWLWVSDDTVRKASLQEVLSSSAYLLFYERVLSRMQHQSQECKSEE
The arrangement: USP30 CD (57-517); purchased Ubiquigent 64-0057-050. The conditions noted are these: for %inhibition USP30: crude in-plate synthesized compound, 1.25 µM assuming full conversion; for BB %inhibition USP30: individual amine building block (plate NCN-5). The procedure: as §1, §2, §3, §4, §5, §6, §7, §8, §9, §10, §11, §12

Sequence of USP16 (Q9Y5T5 22-823): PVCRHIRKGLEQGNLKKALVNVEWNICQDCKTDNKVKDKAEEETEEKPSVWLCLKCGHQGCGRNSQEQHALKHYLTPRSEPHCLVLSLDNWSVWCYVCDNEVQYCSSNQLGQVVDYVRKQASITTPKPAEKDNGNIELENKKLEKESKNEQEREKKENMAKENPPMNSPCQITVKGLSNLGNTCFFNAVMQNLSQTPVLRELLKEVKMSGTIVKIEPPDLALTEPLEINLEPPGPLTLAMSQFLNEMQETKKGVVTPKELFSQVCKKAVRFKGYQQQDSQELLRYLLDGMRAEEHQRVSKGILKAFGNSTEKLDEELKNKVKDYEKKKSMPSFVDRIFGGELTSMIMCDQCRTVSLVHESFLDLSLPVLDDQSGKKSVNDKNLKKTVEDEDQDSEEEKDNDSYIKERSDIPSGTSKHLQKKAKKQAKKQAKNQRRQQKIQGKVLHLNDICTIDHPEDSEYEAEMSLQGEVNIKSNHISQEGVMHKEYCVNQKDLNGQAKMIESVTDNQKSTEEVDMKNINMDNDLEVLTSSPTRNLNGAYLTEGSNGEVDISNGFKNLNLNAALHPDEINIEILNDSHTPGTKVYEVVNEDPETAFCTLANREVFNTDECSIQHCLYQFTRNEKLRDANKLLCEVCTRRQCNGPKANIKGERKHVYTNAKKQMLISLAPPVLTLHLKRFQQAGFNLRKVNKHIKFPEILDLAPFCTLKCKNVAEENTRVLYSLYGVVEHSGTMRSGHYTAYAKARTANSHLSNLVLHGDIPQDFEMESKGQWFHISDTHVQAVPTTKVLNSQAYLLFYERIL

With `N#CN1CC[C@@H](NC(=O)c2nc(N3CCCC3)ncc2Cl)C1` [BB01CA90], the “%inhibition OTUD1” value on OTUD1 amounted to 7.7%. Also, the “%inhibition USP16” value on USP16 is reported as 11.4%. Further, on USP30, the “%inhibition USP30” value was found to be 54.5%.

Take `N#CN1CC[C@@H](NC(=O)C(Cc2c[nH]cn2)NS(=O)(=O)c2ccc(Cl)cc2)C1` (some centres unmarked) [BB01CA91]: on OTUD1, the “%inhibition OTUD1” value is listed as -3.9%. The “%inhibition USP16” value at USP16 is 7.7%. Further, on USP30, the “%inhibition USP30” value is recorded as 36.0%.

In the case of `N#CN1CC[C@@H](NC(=O)Cc2csc(-c3cnccn3)n2)C1` [BB01CA92], on OTUD1, the “%inhibition OTUD1” value is on record as -13.5%. In addition, the “%inhibition USP16” value on USP16 is recorded as 15.0%. For the same compound, the “%inhibition USP30” value at USP30 is 65.3%.

`N#CN1CC[C@@H](NC(=O)CCN(Cc2ccccc2)S(=O)(=O)c2c(Cl)cccc2Cl)C1` [BB01CA93]: at OTUD1, the “%inhibition OTUD1” value is on record as 1.5%. Besides, the “%inhibition USP16” value at USP16 was 20.5%. Also, the “%inhibition USP30” value on USP30 came out at 101.1%.

As to `N#CN1CC[C@@H](NC(=O)c2ncoc2-c2cccs2)C1` [BB01CA94], on OTUD1, the “%inhibition OTUD1” value was -11.1%. The “%inhibition USP16” value at USP16 is 11.4%. The “%inhibition USP30” value on USP30 is 73.0%.

`N#CN1CC[C@@H](N)C1` [BB1]: the “BB %inhibition USP16” value on USP16 was 7.2%. On USP30, the “BB %inhibition USP30” value was 5.9%.

With `N#CN1CCC(N)CC1` [BB2], the “BB %inhibition USP16” value on USP16 turned out to be 8.1%. On USP30, the “BB %inhibition USP30” value came to 4.8%.

On to `N#CN1CC[C@H](N)C1` [BB3], for which, on USP16, the “BB %inhibition USP16” value came out at 5.8%. On USP30, the “BB %inhibition USP30” value was found to be 3.7%.

As to `N#CN1CCC[C@@H](N)C1` [BB4], the “BB %inhibition USP16” value at USP16 was 5.0%. In addition, at USP30, the “BB %inhibition USP30” value worked out at 5.1%.

With `N#CN1CC(N)C1` [BB5], the “BB %inhibition USP16” value at USP16 turned out to be 1.2%. Also, the “BB %inhibition USP30” value on USP30 is recorded as -0.656%.

With `N#CN1C[C@H]2C[C@@H](N)C[C@H]2C1` [BB6], on USP16, the “BB %inhibition USP16” value was 0.3%. Further, the “BB %inhibition USP30” value on USP30 is listed as -0.126%.

Take `N#CN1C[C@H]2C[C@H](N)C[C@H]2C1` [BB7]: at USP16, the “BB %inhibition USP16” value is -1.2%. For the same compound, the “BB %inhibition USP30” value on USP30 is recorded as -2.3%.

As to `N#CN1CCC[C@H](N)C1` [BB8], the “BB %inhibition USP16” value on USP16 is reported as -0.5%. The “BB %inhibition USP30” value on USP30 is listed as -2.4%.

Regarding `N#CN1CC[C@@H](NC(=O)c2ccc(CN)cc2)C1` [BB9], on USP16, the “BB %inhibition USP16” value was -1.3%. The “BB %inhibition USP30” value at USP30 is ~35% and 31.5%.

As to `N#CN1CC[C@H](C(=O)Nc2nc3c(s2)CNCC3)C1` [BB10], the “BB %inhibition USP16” value at USP16 is given as -2.4%. Also, on USP30, the “BB %inhibition USP30” value was -2.0%.

Turning to `N#CN1CC[C@H](CN)C1` [BB11], at USP16, the “BB %inhibition USP16” value was -4.8%. Also, on USP30, the “BB %inhibition USP30” value is -5.7%.

For the compound `N#CN1C[C@@H]2C[C@H]1CN2` [BB12], on USP16, the “BB %inhibition USP16” value was -5.0%. For the same compound, the “BB %inhibition USP30” value on USP30 is given as -3.6%.

`N#CN1C[C@H](N)[C@@H](O)C1` [BB13]: the “BB %inhibition USP16” value on USP16 was determined as 4.4%. Further, at USP30, the “BB %inhibition USP30” value is 7.5%.

Turning to `N#CN1CCC2(CCNC2)C1` (centres unmarked) [BB14], the “BB %inhibition USP16” value at USP16 amounted to 5.9%. Further, the “BB %inhibition USP30” value at USP30 is on record as 3.9%.

Take `N#CN1C[C@@H](F)[C@@H](N)C1` [BB15]: the “BB %inhibition USP16” value at USP16 was -1.1%. The “BB %inhibition USP30” value on USP30 was -2.2%.

As to `N#CN1CCC(n2cc(N)cn2)CC1` [BB16], on USP16, the “BB %inhibition USP16” value is given as -0.846%. On USP30, the “BB %inhibition USP30” value is 0.9%.
